The target in test [1] is T1, C-CBL (residues 46-435) (Homo sapiens, UniProt P22681).
T1 construct: Purified CBL-B (residues 36-427) and C-CBL (residues 46-435) proteins from baculovirus-infected insect cells; made in house; host or cells: baculovirus-infected insect cells
T1 sequence (P22681 46-435): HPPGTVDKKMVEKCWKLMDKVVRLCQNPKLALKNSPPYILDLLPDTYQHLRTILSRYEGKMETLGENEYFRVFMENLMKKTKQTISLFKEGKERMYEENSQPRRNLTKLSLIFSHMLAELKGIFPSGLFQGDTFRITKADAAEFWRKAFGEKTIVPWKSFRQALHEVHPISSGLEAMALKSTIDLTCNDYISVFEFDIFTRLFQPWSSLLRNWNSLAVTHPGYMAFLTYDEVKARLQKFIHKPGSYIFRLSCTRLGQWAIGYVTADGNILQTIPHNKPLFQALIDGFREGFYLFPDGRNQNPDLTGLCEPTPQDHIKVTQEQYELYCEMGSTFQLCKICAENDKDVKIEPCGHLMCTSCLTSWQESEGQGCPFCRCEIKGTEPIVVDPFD
Description: Ligand Displacement Assay (LDA), HTRF competitive binding against BODIPY-labeled fluorescent tracer, C-CBL. The settings on record: geometric mean of the number of tests, read-out: C-CBL Ki (nM) GMean. Summed up:
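Ki values, given as geometric means of repeated tests, come from TR-FRET displacement of a BODIPY-labelled tracer from terbium-streptavidin-bound, AviTag-biotinylated protein made in baculovirus-infected insect cells. Compounds ran as three-fold dilutions in duplicate, […], 2% DMSO.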
For orientation: TR-FRET usually uses a lanthanide donor and a delayed reading to cut background.

Test [2] has as its target T2, WT CBL-B (36-427) (Homo sapiens, UniProt Q13191).
T2 construct: N-terminal biotinylated WT CBL-B (36-427) and C-CBL (46-435) were captured on a streptavidin (SA) coated sensor chip
Description: Surface Plasmon Resonance (SPR) assay, binding affinity and kinetics, CBL-B. Conditions: SPR at 10° C., biotinylated WT CBL-B (36-427) on streptavidin chip; geometric mean; read-out: CBL-B SPR Kd (nM) GMean. Summed up: (§1)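 SPR kinetics at 10° C, run either single-cycle (0.001–1 μM, 3-fold, 6 points, 120 s on, >5400 s off) or multi-cycle (10 points, 2-fold, top 10 or 100 μM, 90 s on). Proteins were N-biotinylated CBL-B (36-427) and C-CBL (46-435) on SA surfaces, in pH 7.2 HEPES, 2% DMSO.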

Test [3] has as its target T3, C-CBL (46-435) (Homo sapiens, UniProt P22681).
T3 construct: N-terminal biotinylated WT CBL-B (36-427) and C-CBL (46-435) were captured on a streptavidin (SA) coated sensor chip
T3 sequence (P22681 46-435): T1 sequence (P22681 46-435)
Description: Surface Plasmon Resonance (SPR) assay, binding affinity and kinetics, C-CBL. The settings on record: SPR at 10° C., biotinylated C-CBL (46-435) on streptavidin chip; geometric mean; read-out: C-CBL SPR Kd (nM) GMean. Summed up: as §1

`C[C@H]1CN(Cc2nc(C(F)(F)F)cc3c(-c4cccc([C@H](c5nncn5C)C5CCC5)c4)n[nH]c23)CCO1` [Example C6, 3-{3-[(R)-cyclobutyl(4-methyl-4H-1,2,4-triazol-3-yl)methyl]phenyl}-7-{[(2S)-2-methylmorpholin-4-yl]methyl}-5-(trifluoromethyl)-1H-pyrazolo[3,4-c]pyridine]: the Ki in test [1] is 256 nM. Moreover, the Kd amounted to 4.4 nM in test [2] and 102 nM in test [3].

For `C[C@H](N)c1nc(C(F)(F)F)cc2c(-c3cccc([C@H](c4nncn4C)C4CCC4)c3)n[nH]c12` [Example K12, (1S)-1-[3-{3-[(R)-cyclobutyl(4-methyl-4H-1,2,4-triazol-3-yl)methyl]phenyl}-5-(trifluoromethyl)-1H-pyrazolo[3,4-c]pyridin-7-yl]ethan-1-amine], in test [1], the Ki stood at 136 nM. Also, the Kd in test [2] was 4.2 nM; in test [3], 209 nM.

Broadly, the Ki is a measure of affinity in units of concentration, obtained from inhibition or displacement. As usually defined, the Kd is the free concentration of one partner at which half of the binding sites on the other are occupied at equilibrium, for simple one-to-one binding.

Source of the values: patent US20260125375A1 (Pfizer Inc., priority 2022, published 2026).
